Experimental data as given in US7423025B2 (MUSC Foundation for Research Development, priority 2005, dated 2008).
“Also recorded” adds a separate entry of the source.

Columns and labels:
[1] = target: S-adenosyl-L-homocysteine hydrolase (Homo sapiens, UniProt P23526); conditions: cited from earlier work
[2] = test system: mammalian nucleoside transporters; conditions: cited from earlier work
[3] = test system: L6 myoblasts; assay: Azide-induced Pasteur effect in L6 myoblasts measured by microphysiometer; type: cell-based; conditions: sodium azide 5 mM, 10 min exposure, normalized to first azide exposure 30 min prior
Method: FIG. 5 is a graph showing increase of the azide-induced Pasteur effect on L6 myoblasts by L-3′-AM-MECA (2) and L-3′-ADMdA (1). Percent changes in extracellular acidification rates upon treatment of L6 cells with sodium azide (5 mM) are shown. Responses are the average for 10 min exposure and these are normalized to the increase measured for the first exposure of the same cells to azide 30 min prior. Typically the second exposure causes a diminished Pasteur effect (see control). Error bars are SEM for n=3-5. * Statistically different from negative control (IR).
The ability of increasing the azide-induced Pasteur in L6 myoblasts was measured by microphysiometer.

[4] = test system: Langendorff perfused mouse heart; assay: Ischemia/reperfusion model on Langendorff perfused (isolated) mouse heart, cardioprotective activity; conditions: for maximum ischemic contracture, in words / time until onset of ischemic contracture, in words: 5 min pretreatment before 40 min ischemia; for cardiac tissue necrosis / infarction area by TTC staining, in words: 5 min pretreatment before ischemia-reperfusion; for infarction area (TTC staining, percentage of area) / maximum ischemic contracture: 5 min pretreatment; for infarction area (TTC staining, percentage of area) / maximum ischemic contracture / onset of contracture (time until onset of ischemic contracture): 40 min global ischemia; for infarction area (TTC staining, percentage of area): 60 min reperfusion, negative control 58.3±5.8%; for infarction area (TTC staining, percentage of area) / maximum ischemic contracture / onset of contracture (time until onset of ischemic contracture) / functional recovery (% rate pressure product): Mean±SEM; for maximum ischemic contracture: negative control 105.0±6.8 cmH2O; for functional recovery of contractility (% RPP), in words: upon reperfusion after 40 min ischemia; for onset of contracture (time until onset of ischemic contracture): negative control 10.5±1.0 min; for functional recovery (% rate pressure product): after 40 min ischemia and reperfusion, negative control 21.3±1.4

Chain of S-adenosyl-L-homocysteine hydrolase (P23526 whole entry, species assumed): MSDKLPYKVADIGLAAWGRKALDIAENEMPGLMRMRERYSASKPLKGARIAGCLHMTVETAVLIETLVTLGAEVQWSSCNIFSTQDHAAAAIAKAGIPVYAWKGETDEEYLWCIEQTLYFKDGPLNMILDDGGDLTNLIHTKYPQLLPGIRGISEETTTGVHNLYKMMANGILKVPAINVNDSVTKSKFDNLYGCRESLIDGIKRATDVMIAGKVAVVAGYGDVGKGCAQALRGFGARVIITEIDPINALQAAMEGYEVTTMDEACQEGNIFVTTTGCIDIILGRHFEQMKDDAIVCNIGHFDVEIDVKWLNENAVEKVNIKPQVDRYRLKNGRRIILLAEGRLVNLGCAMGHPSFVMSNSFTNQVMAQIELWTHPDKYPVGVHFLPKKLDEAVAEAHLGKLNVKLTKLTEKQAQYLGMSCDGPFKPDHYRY

SMILES	activity on animal enzymes such as S-adenosyl-L-homocysteine hydrolase [1]	interaction with mammalian nucleoside transporters [2]	increase of azide-induced Pasteur effect (extracellular acidification rate) [3]	maximum ischemic contracture, in words [4]	time until onset of ischemic contracture, in words [4]	cardiac tissue necrosis / infarction area by TTC staining, in words [4]	infarction area (TTC staining, percentage of area) [4]	maximum ischemic contracture [4]	functional recovery of contractility (% RPP), in words [4]	functional recovery of contractility (% RPP), in words ([4]; listed as L-3′-AM-MECA)	onset of contracture (time until onset of ischemic contracture) [4]	functional recovery (% rate pressure product) [4]	cardiac standstill during treatment ([4]; during 5 min perfusion before ischemia, adenosine at 50 μM)
Nc1ncnc2c1ncn2[C@H]1O[C@@H](CO)[C@H](O)[C@@H]1O [L-adenosine]	inactive	does not interact											
CNC(=O)[C@@H]1O[C@H](n2cnc3c(NC)ncnc32)[C@@H](O)[C@H]1N [Compound 2, L-3′-amino-3′-deoxy-N^6-methyladenosine-5′-N-methyluronamide]			128%	significant decrease of maximum ischemic contracture; also recorded: significantly decreased maximum ischemic contracture	does not show a significant effect; also recorded: did not significantly alter this parameter	protective effect that is comparable or higher than adenosine; also recorded: showed decrease of cardiac tissue necrosis	31.8±5.4%	87.6±6.3 cmH2O	did not show significant functional recovery	did not show any significant effect			
OC[C@H]1O[C@@H](n2cnc3c(NC4CCCC4)nc(Cl)nc32)[C@H](O)[C@@H]1O [CCPA, reference compound]			19%										
CNC(=O)[C@H]1O[C@@H](n2cnc3c(N)ncnc32)[C@H](O)[C@@H]1O [MECA, reference compound]			115%										
Nc1ncnc2c1ncn2[C@@H]1O[C@H](CO)[C@@H](O)[C@H]1O [adenosine, reference compound]				lower maximal	delayed time until onset of ischemic contracture	significantly less evidence of necrosis	24.6±5.8%	74.1±15.6 cmH2O	significantly increased recovery of function		13.6 ± 0.6 min	30.7±3.4 cmH2O/s % rate pressure product	
CN(C)c1ncnc2c1ncn2[C@H]1O[C@@H](CO)[C@H](N)[C@@H]1O [Compound 1, L-3′-amino-3′-deoxy-N^6-dimethyladenosine]			136%	significant decrease of maximum ischemic contracture; also recorded: significantly decreased maximum ischemic contracture	increasing the time until onset of ischemic contracture	protective effect that is comparable or higher than adenosine; also recorded: showed decrease of cardiac tissue necrosis	39.8±5.7%	74.3±7.8 cmH2O	significant functional recovery of contractility		14.5 ± 0.9 min	32.2±3.7 cmH2O/s % rate pressure product	neither showed cardiac standstill during treatment; also recorded: neither (1) nor (2) induce cardiac standstill
